{
  "source": "ChEMBL document CHEMBL1201862",
  "about": "“PubChem BioAssay data set” (2004)",
  "test_in_all_cases": "inhibition of tumour cell growth, NCI panel, 48 h",
  "key": {"HCC 2998": {"system": "HCC 2998"}, "UACC-257": {"system": "UACC-257"}, "TK-10": {"system": "TK-10"}, "KM12": {"system": "KM12"}, "SK-MEL-5": {"system": "SK-MEL-5"}, "HOP-62": {"system": "HOP-62"}, "SK-MEL-28": {"system": "SK-MEL-28"}, "HT-29": {"system": "HT-29"}, "BT-549": {"system": "BT-549"}, "LOX IMVI": {"system": "LOX IMVI"}, "786-0": {"system": "786-0"}, "SR": {"system": "SR"}, "OVCAR-3": {"system": "OVCAR-3"}, "SF-295": {"system": "SF-295"}, "IGROV-1": {"system": "IGROV-1"}, "OVCAR-4": {"system": "OVCAR-4"}, "SF-268": {"system": "SF-268"}, "SNB-19": {"system": "SNB-19"}, "SN12C": {"system": "SN12C"}, "NCI/ADR-RES": {"system": "NCI/ADR-RES"}, "DU-145": {"system": "DU-145"}, "HOP-92": {"system": "HOP-92"}, "Malme-3M": {"system": "Malme-3M"}, "CAKI-1": {"system": "CAKI-1"}, "HCT-116": {"system": "HCT-116"}, "MDA-N": {"system": "MDA-N"}, "CCRF-CEM": {"system": "CCRF-CEM"}, "PC-3": {"system": "PC-3"}, "OVCAR-5": {"system": "OVCAR-5"}, "SW-620": {"system": "SW-620"}, "Hs-578T": {"system": "Hs-578T"}, "MCF7": {"system": "MCF7"}, "A549": {"system": "A549"}, "A498": {"system": "A498"}, "T47D": {"system": "T47D"}, "NCI-H23": {"system": "NCI-H23"}, "OVCAR-8": {"system": "OVCAR-8"}, "K562": {"system": "K562"}, "HCT-15": {"system": "HCT-15"}, "SK-OV-3": {"system": "SK-OV-3"}, "COLO 205": {"system": "COLO 205"}, "UACC-62": {"system": "UACC-62"}, "NCI-H460": {"system": "NCI-H460"}, "NCI-H522": {"system": "NCI-H522"}, "NCI-H226": {"system": "NCI-H226"}, "SF-539": {"system": "SF-539"}, "RXF 393": {"system": "RXF 393"}, "RPMI-8226": {"system": "RPMI-8226"}, "M14": {"system": "M14"}, "U-251": {"system": "U-251"}, "MDA-MB-231": {"system": "MDA-MB-231"}, "MOLT-4": {"system": "MOLT-4"}, "UO-31": {"system": "UO-31"}, "ACHN": {"system": "ACHN"}, "EKVX": {"system": "EKVX"}, "HL-60": {"system": "HL-60"}, "MDA-MB-435": {"system": "MDA-MB-435"}, "SK-MEL-2": {"system": "SK-MEL-2"}},
  "note": "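The compound was tested at five concentrations on cells cultured in 96-well plates, with a 48-hour exposure period. The concentration for 50% growth inhibition is given as GI50.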 Active and inactive are the calls of the source. No stated cut-off is given here; in the data, active = GI50 up to about 1.1 µM and inactive = higher.",
  "data": [
    {"smiles": "Nc1nc(-c2ccc3ccccc3c2)cc(-c2cc(-c3ccc4ccccc4c3)nc(N)n2)n1", "values": [
      {"measurement": "GI50", "setting": "HCC 2998", "result": "> 100 µM (inactive)"},
      {"measurement": "GI50", "setting": "UACC-257", "result": "> 100 µM (inactive)"},
      {"measurement": "GI50", "setting": "TK-10", "result": "> 100 µM (inactive)"},
      {"measurement": "GI50", "setting": "KM12", "result": "> 100 µM (inactive)"},
      {"measurement": "GI50", "setting": "SK-MEL-5", "result": "> 100 µM (inactive)"},
      {"measurement": "GI50", "setting": "HOP-62", "result": "> 100 µM (inactive)"},
      {"measurement": "GI50", "setting": "SK-MEL-28", "result": "> 100 µM (inactive)"},
      {"measurement": "GI50", "setting": "HT-29", "result": "> 100 µM (inactive)"},
      {"measurement": "GI50", "setting": "BT-549", "result": "> 100 µM (inactive)"},
      {"measurement": "GI50", "setting": "LOX IMVI", "result": "> 100 µM (inactive)"},
      {"measurement": "GI50", "setting": "786-0", "result": "> 100 µM (inactive)"},
      {"measurement": "GI50", "setting": "SR", "result": "> 100 µM (inactive)"},
      {"measurement": "GI50", "setting": "OVCAR-3", "result": "> 100 µM (inactive)"},
      {"measurement": "GI50", "setting": "SF-295", "result": "> 100 µM (inactive)"},
      {"measurement": "GI50", "setting": "IGROV-1", "result": "> 100 µM (inactive)"},
      {"measurement": "GI50", "setting": "OVCAR-4", "result": "> 100 µM (inactive)"},
      {"measurement": "GI50", "setting": "SF-268", "result": "> 100 µM (inactive)"},
      {"measurement": "GI50", "setting": "SNB-19", "result": "> 100 µM (inactive)"},
      {"measurement": "GI50", "setting": "SN12C", "result": "> 100 µM (inactive)"},
      {"measurement": "GI50", "setting": "NCI/ADR-RES", "result": "> 100 µM (inactive)"},
      {"measurement": "GI50", "setting": "DU-145", "result": "> 100 µM (inactive)"},
      {"measurement": "GI50", "setting": "HOP-92", "result": "> 100 µM (inactive)"},
      {"measurement": "GI50", "setting": "Malme-3M", "result": "> 100 µM (inactive)"},
      {"measurement": "GI50", "setting": "CAKI-1", "result": "> 100 µM (inactive)"},
      {"measurement": "GI50", "setting": "HCT-116", "result": "> 100 µM (inactive)"},
      {"measurement": "GI50", "setting": "MDA-N", "result": "> 100 µM (inactive)"},
      {"measurement": "GI50", "setting": "CCRF-CEM", "result": "> 100 µM (inactive)"},
      {"measurement": "GI50", "setting": "PC-3", "result": "> 100 µM (inactive)"},
      {"measurement": "GI50", "setting": "OVCAR-5", "result": "> 100 µM (inactive)"},
      {"measurement": "GI50", "setting": "SW-620", "result": "> 100 µM (inactive)"},
      {"measurement": "GI50", "setting": "Hs-578T", "result": "> 100 µM (inactive)"},
      {"measurement": "GI50", "setting": "MCF7", "result": "> 100 µM (inactive)"},
      {"measurement": "GI50", "setting": "A549", "result": "> 100 µM (inactive)"},
      {"measurement": "GI50", "setting": "A498", "result": "> 100 µM (inactive)"},
      {"measurement": "GI50", "setting": "T47D", "result": "> 100 µM (inactive)"},
      {"measurement": "GI50", "setting": "NCI-H23", "result": "> 100 µM (inactive)"},
      {"measurement": "GI50", "setting": "OVCAR-8", "result": "> 100 µM (inactive)"},
      {"measurement": "GI50", "setting": "K562", "result": "> 100 µM (inactive)"},
      {"measurement": "GI50", "setting": "HCT-15", "result": "> 100", "unit": "µM"},
      {"measurement": "GI50", "setting": "SK-OV-3", "result": "> 100 µM (inactive)"},
      {"measurement": "GI50", "setting": "COLO 205", "result": "> 100 µM (inactive)"},
      {"measurement": "GI50", "setting": "UACC-62", "result": "> 100 µM (inactive)"},
      {"measurement": "GI50", "setting": "NCI-H460", "result": "> 100 µM (inactive)"},
      {"measurement": "GI50", "setting": "NCI-H522", "result": "> 100 µM (inactive)"},
      {"measurement": "GI50", "setting": "NCI-H226", "result": "> 100 µM (inactive)"},
      {"measurement": "GI50", "setting": "SF-539", "result": "> 100 µM (inactive)"},
      {"measurement": "GI50", "setting": "RXF 393", "result": "> 100 µM (inactive)"},
      {"measurement": "GI50", "setting": "RPMI-8226", "result": "> 100 µM (inactive)"},
      {"measurement": "GI50", "setting": "M14", "result": "> 100 µM (inactive)"},
      {"measurement": "GI50", "setting": "U-251", "result": "> 100 µM (inactive)"},
      {"measurement": "GI50", "setting": "MDA-MB-231", "result": "> 100 µM (inactive)"},
      {"measurement": "GI50", "setting": "MOLT-4", "result": "> 100 µM (inactive)"},
      {"measurement": "GI50", "setting": "UO-31", "result": "> 100 µM (inactive)"},
      {"measurement": "GI50", "setting": "ACHN", "result": "> 100 µM (inactive)"},
      {"measurement": "GI50", "setting": "EKVX", "result": "75.3 µM (inactive)"},
      {"measurement": "GI50", "setting": "HL-60", "result": "> 100 µM (inactive)"},
      {"measurement": "GI50", "setting": "MDA-MB-435", "result": "> 100 µM (inactive)"},
      {"measurement": "GI50", "setting": "SK-MEL-2", "result": "> 100 µM (inactive)"}
    ]}
  ]
}
